From ChEMBL document CHEMBL1201862, “PubChem BioAssay data set” (2004)
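Exposure lasted 48 hours, with cells grown in 96-well plates and compounds tested at five concentrations. GI50 marks 50% less growth.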 The source made the active and inactive calls. No stated cut-off is given here; in the data, active = GI50 up to about 1.1 µM and inactive = higher.

What was measured:
Test in all cases: NCI anticancer screen, dose series, 48 h
[1] = test system: MOLT-4
[2] = test system: CCRF-CEM
[3] = test system: RPMI-8226
[4] = test system: NCI-H460
[5] = test system: OVCAR-3
[6] = test system: SK-MEL-28
[7] = test system: KM12
[8] = test system: SK-MEL-5
[9] = test system: HT-29
[10] = test system: NCI-H522
[11] = test system: UO-31
[12] = test system: TK-10
[13] = test system: HCT-15
[14] = test system: SR
[15] = test system: CAKI-1

Structure (SMILES) | GI50 [1] | GI50 [2] | GI50 [3] | GI50 [4] | GI50 [5] | GI50 [6] | GI50 [7] | GI50 [8] | GI50 [9] | GI50 [10] | GI50 [11] | GI50 [12] | GI50 [13] [µM] | GI50 [14] | GI50 [15]
c1ccc(COc2cccc3cccnc23)cc1 | > 100 µM (inactive) | 31.5 µM (inactive) | > 100 µM (inactive) | > 100 µM (inactive) | 63.5 µM (inactive) | > 100 µM (inactive) | 61.4 µM (inactive) | 50.2 µM (inactive) | 80.9 µM (inactive) | 50.9 µM (inactive) | 56.9 µM (inactive) | > 100 µM (inactive) | – | – | –
COC1OC(C)C(OCc2ccccc2)C(OS(=O)(=O)c2ccc(C)cc2)C1OS(=O)(=O)c1ccc(C)cc1 (stereo unspecified) | > 100 µM (inactive) | > 100 µM (inactive) | > 100 µM (inactive) | > 100 µM (inactive) | > 100 µM (inactive) | > 100 µM (inactive) | > 100 µM (inactive) | > 100 µM (inactive) | > 100 µM (inactive) | > 100 µM (inactive) | > 100 µM (inactive) | – | > 100 | > 100 µM (inactive) | 53.5 µM (inactive)
Nc1cc2c(C3OC(CO)C(O)C3O)n[nH]c2c(=S)[nH]1 (stereo unspecified) | > 100 µM (inactive) | > 100 µM (inactive) | > 100 µM (inactive) | > 100 µM (inactive) | – | > 100 µM (inactive) | > 100 µM (inactive) | > 100 µM (inactive) | > 100 µM (inactive) | > 100 µM (inactive) | > 100 µM (inactive) | – | 94 | > 100 µM (inactive) | 54.3 µM (inactive)
CCCCOC(=O)NC(=O)c1cn(CCCOC(=O)NCCCCCCNC(=O)OCCCn2cc(C(=O)NC(=O)OCCCC)c(=O)[nH]c2=O)c(=O)[nH]c1=O | – | – | > 100 µM (inactive) | > 100 µM (inactive) | > 100 µM (inactive) | > 100 µM (inactive) | > 100 µM (inactive) | > 100 µM (inactive) | > 100 µM (inactive) | > 100 µM (inactive) | > 100 µM (inactive) | 41.8 µM (inactive) | > 100 | > 100 µM (inactive) | –
COc1cc2c(c(C)c1O)[C@H]1COc3ccccc3[C@H]1O2 | 14.7 µM (inactive) | 13.6 µM (inactive) | 13.8 µM (inactive) | 11.3 µM (inactive) | 21.9 µM (inactive) | 12.6 µM (inactive) | 24.7 µM (inactive) | 10.8 µM (inactive) | 17.7 µM (inactive) | 3.27 µM (inactive) | 8.51 µM (inactive) | 31.5 µM (inactive) | 4.27 | – | 9.04 µM (inactive)
CC1=NN(C(=O)CC(=O)NC(=O)CC(=O)Nc2ccccc2F)C(=O)C1/N=N/c1ccc([N+](=O)[O-])cc1 (stereo unspecified) | 39.3 µM (inactive) | 33.3 µM (inactive) | 22.6 µM (inactive) | 37.1 µM (inactive) | 28.6 µM (inactive) | > 100 µM (inactive) | 56.1 µM (inactive) | 44.4 µM (inactive) | 19.8 µM (inactive) | – | 26.7 µM (inactive) | 44.1 µM (inactive) | 33.7 | – | 63.1 µM (inactive)
CCCCCN(CCCCC)C(=O)[C@H](CCC(=O)O)NC(=O)c1cc2ccccc2[nH]1 | 24.9 µM (inactive) | 33.4 µM (inactive) | 21.8 µM (inactive) | 39.3 µM (inactive) | 42.7 µM (inactive) | 29.8 µM (inactive) | 50.4 µM (inactive) | – | 59.6 µM (inactive) | 20.2 µM (inactive) | 31 µM (inactive) | > 100 µM (inactive) | 54.8 | – | 51.9 µM (inactive)
